Laboratory results as given in EP0539209A1, “Benzo-isoquinoline derivatives and analogs and their use in therapeutics” (THE UPJOHN COMPANY, priority 1991, dated 1993).

Experiments:
Dopamine - D2 = Dopamine - D2 (Homo sapiens, UniProt P14416); test: CNS Receptor Binding Assay, dopamine D2; conditions: PART I - TABLE I; test compounds at 1 microMolar concentration
From the text: (§1) CNS Receptor Binding Assay (PART I - TABLE I): The Central Nervous System Binding Assay measures the percent inhibibition from experiments employing test compounds at 1 microMolar concentration competing with various radioligands for binding to whole brain membranes, membranes prepared from specific brain structures, or membranes prepared from cell lines expressing cloned receptors. When percent inhibition is equal to 100 the test compound binds as well as the standard compound. The standard compound for the 5-HT1A receptor is 8-OH-DPAT. The standard compound for the dopamine D1 receptor is SCH 23390.
as §1, with “(PART II” for “(PART I”, “percent inhibition” for “percent inhibibition”, “the” for “the 5-HT1A receptor is 8-OH-DPAT. The standard compound for the”

dopamine D1 receptor = dopamine D1 receptor (Homo sapiens, UniProt P21728); test: CNS Receptor Binding Assay, dopamine D1; conditions: PART I - TABLE I; test compounds at 1 microMolar concentration; standard SCH 23390
Chain of dopamine D1 receptor (P21728 whole entry, species assumed): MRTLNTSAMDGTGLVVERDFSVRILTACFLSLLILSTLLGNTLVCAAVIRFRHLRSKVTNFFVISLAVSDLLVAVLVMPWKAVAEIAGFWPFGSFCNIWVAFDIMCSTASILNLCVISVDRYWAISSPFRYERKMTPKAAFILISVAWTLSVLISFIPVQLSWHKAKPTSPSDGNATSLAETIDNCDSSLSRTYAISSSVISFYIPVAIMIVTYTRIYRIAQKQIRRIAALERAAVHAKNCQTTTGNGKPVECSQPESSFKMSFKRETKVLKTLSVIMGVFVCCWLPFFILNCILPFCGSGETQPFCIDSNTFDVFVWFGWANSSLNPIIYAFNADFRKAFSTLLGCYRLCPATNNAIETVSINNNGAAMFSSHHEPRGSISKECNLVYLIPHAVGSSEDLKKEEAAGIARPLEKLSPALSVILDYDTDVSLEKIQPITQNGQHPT
From the text: as §1
as §1, with “(PART II” for “(PART I”, “percent inhibition” for “percent inhibibition”, “the” for “the 5-HT1A receptor is 8-OH-DPAT. The standard compound for the”

5-HT1A receptor = biological target: T1, 5-HT1A receptor (Homo sapiens, UniProt P08908); test: CNS Receptor Binding Assay, 5-HT1A; conditions: PART I - TABLE I; test compounds at 1 microMolar concentration competing with radioligand; 100 = binds as well as standard 8-OH-DPAT
T1 sequence (P08908 1-422): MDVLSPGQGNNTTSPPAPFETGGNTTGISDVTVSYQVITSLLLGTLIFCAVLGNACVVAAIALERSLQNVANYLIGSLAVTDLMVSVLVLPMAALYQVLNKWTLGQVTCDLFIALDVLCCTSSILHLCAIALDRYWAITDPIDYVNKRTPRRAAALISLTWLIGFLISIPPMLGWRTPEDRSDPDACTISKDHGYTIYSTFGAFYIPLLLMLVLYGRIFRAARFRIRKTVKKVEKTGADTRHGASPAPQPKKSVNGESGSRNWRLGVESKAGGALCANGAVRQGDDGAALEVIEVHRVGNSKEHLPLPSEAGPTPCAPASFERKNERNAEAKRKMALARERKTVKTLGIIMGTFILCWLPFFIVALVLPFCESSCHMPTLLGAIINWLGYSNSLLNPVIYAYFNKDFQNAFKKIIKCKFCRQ
From the text: as §1

Chain of Dopamine - D2 (P14416 whole entry): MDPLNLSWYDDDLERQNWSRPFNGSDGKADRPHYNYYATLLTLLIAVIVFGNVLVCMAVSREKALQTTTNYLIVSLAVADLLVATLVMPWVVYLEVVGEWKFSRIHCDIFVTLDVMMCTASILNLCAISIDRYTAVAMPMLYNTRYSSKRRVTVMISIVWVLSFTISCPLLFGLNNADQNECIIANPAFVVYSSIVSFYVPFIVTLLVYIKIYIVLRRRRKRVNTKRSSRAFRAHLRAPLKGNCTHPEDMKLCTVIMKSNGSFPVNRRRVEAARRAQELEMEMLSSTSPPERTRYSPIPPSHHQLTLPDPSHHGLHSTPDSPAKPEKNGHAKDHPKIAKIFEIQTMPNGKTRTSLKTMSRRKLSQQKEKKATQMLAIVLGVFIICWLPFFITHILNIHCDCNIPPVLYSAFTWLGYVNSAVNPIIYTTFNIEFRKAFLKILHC

Structure (SMILES) | Dopamine - D2 % inhibition (Dopamine - D2) | Dopamine - D1 % inhibition (dopamine D1 receptor) | 5-HT1A % inhibition (5-HT1A receptor) | inhibition at 1 µM (Dopamine - D2) | inhibition at 1 µM (5-HT1A receptor) | inhibition at 1 µM (dopamine D1 receptor)
CCCN1CCC2Cc3c(C(N)=O)cccc3C2CC1 (single isomer, unassigned) [compound 5] |  | 10% |  | 24% | 24% | 
CCCN1CCC2Cc3c(C#N)cccc3C2CC1 (single isomer, unassigned) [compound 7] | 22% | 11% | 17% |  |  | 
CCCN1CCC2Cc3c(C#N)cccc3C2CC1 (single isomer, unassigned) [compound 8] |  |  |  | 35% | 15% | 7%
CCCN1CCC2Cc3c(Cl)ccc(OC)c3C2CC1 (stereo not drawn) [compound 1] |  |  |  | 74% | 99% | 57%

Now from value to molecule:

Dopamine - D2 % inhibition (Dopamine - D2) | Dopamine - D1 % inhibition (dopamine D1 receptor) | 5-HT1A % inhibition (5-HT1A receptor) | inhibition at 1 µM (Dopamine - D2) | inhibition at 1 µM (5-HT1A receptor) | inhibition at 1 µM (dopamine D1 receptor) | Structure (SMILES)
45% | 13% | 93% |  |  |  | CCCN1CCC2Cc3cccc(C(N)=O)c3C2CC1 (single isomer, unassigned) [compound 3]
2% | 0% | 21% |  |  |  | CCCN1CCC2Cc3cccc(C(N)=O)c3C2CC1 (single isomer, unassigned) [compound 4]
31% | 50% | 18% |  |  |  | CCCN1CCC2Cc3c(C(N)=O)cccc3C2CC1 (single isomer, unassigned) [compound 6]
